Tests used:
[1] = test system: PANC-1; test: SRB colorimetric cell growth inhibition assay, PANC-1; assay type: cell-based; conditions: PANC-1
Method in brief: (§1)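 Continuous-exposure format, human tumour lines. SRB colour reaction quantifies growth/viability. Triplicate wells → mean ± SD → GI, TGI, LC.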

[2] = test system: IGROV-ET; test: SRB colorimetric cell growth inhibition assay, IGROV-ET (ET-743 resistant); assay type: cell-based; conditions: IGROV-ET
Method in brief: as §1

[3] = test system: LoVo; test: SRB colorimetric cell growth inhibition assay, LoVo; assay type: cell-based; conditions: LOVO
Method in brief: as §1

[4] = test system: H-MEC-1; test: SRB colorimetric cell growth inhibition assay, H-MEC-1; assay type: cell-based; conditions: H-MEC-1
Source text: Inhibition of Cell Growth by Colorimetric Assay.
A colorimetric type of assay, using sulforhodamine B (SRB) reaction has been adapted for a quantitative measurement of cell growth and viability (following the technique described by P. A. Skehan, et al., J. Natl. Cancer Inst. 1990, 82, 1107-1112).
This form of assay employs 96 well cell culture microplates of 9 mm diameter (T. Mosmann et al., J. of Immunological Methods 1983, 65, 55-63; G. T. Faircloth et al., J. of Tissue and Culture Methods 1988, 11, 201-205).
Most of the cell lines are obtained from American Type Culture Collection (ATCC) derived from different human cancer types.
The values for mean +/− SD of data from triplicate wells are calculated. Some parameters for cellular responses can be calculated: GI=growth inhibition, TGI=total growth inhibition (cytostatic effect) and LC=cell killing (cytotoxic effect).

[5] = test system: SKOV-3; test: SRB colorimetric cell growth inhibition assay, SKOV-3; assay type: cell-based; conditions: SKOV-3
Method in brief: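 SRB colorimetric readout of cell growth/viability in 96-well format. Means ± SD from triplicate wells; GI (growth inhibition), TGI (total growth inhibition, cytostatic) and LC (cell killing, cytotoxic) parameters derived.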

[6] = test system: HT-29; test: SRB colorimetric cell growth inhibition assay, HT-29; assay type: cell-based; conditions: HT-29
Method in brief: as §1

[7] = test system: SK-BR-3; test: SRB colorimetric cell growth inhibition assay, SK-BR-3; assay type: cell-based; conditions: SK-BR-3
Method in brief: as §1

[8] = test system: DU-145; test: SRB colorimetric cell growth inhibition assay, DU-145; assay type: cell-based; conditions: DU-145
Method in brief: as §1

[9] = test system: A-549; test: SRB colorimetric cell growth inhibition assay, A-549; assay type: cell-based; conditions: A-549
Method in brief: as §1

[10] = test system: LoVo-Dox; test: SRB colorimetric cell growth inhibition assay, LoVo-Dox (MDR); assay type: cell-based; conditions: LOVO-DOX
Method in brief: as §1

[11] = test system: K-562; test: SRB colorimetric cell growth inhibition assay, K-562; assay type: cell-based; conditions: K-562
Method in brief: as §1

[12] = test system: IGROV; test: SRB colorimetric cell growth inhibition assay, IGROV; assay type: cell-based; conditions: IGROV
Method in brief: as §1

[13] = test system: SK-MEL-28; test: SRB colorimetric cell growth inhibition assay, SK-MEL-28; assay type: cell-based; conditions: MEL-28
Method in brief: as §1

[14] = test system: LNCaP; test: SRB colorimetric cell growth inhibition assay, LNCaP; assay type: cell-based; conditions: LN-caP
Method in brief: as §1

[15] = target: T1, human topoisomerase I (Homo sapiens, UniProt P11387); test: Topoisomerase I DNA relaxation assay (supercoiled plasmid DNA); assay type: biochemical; conditions: supercoiled plasmid DNA, each compound tested at 1 μM, agarose gel with ethidium bromide
T1 sequence (P11387 1-765): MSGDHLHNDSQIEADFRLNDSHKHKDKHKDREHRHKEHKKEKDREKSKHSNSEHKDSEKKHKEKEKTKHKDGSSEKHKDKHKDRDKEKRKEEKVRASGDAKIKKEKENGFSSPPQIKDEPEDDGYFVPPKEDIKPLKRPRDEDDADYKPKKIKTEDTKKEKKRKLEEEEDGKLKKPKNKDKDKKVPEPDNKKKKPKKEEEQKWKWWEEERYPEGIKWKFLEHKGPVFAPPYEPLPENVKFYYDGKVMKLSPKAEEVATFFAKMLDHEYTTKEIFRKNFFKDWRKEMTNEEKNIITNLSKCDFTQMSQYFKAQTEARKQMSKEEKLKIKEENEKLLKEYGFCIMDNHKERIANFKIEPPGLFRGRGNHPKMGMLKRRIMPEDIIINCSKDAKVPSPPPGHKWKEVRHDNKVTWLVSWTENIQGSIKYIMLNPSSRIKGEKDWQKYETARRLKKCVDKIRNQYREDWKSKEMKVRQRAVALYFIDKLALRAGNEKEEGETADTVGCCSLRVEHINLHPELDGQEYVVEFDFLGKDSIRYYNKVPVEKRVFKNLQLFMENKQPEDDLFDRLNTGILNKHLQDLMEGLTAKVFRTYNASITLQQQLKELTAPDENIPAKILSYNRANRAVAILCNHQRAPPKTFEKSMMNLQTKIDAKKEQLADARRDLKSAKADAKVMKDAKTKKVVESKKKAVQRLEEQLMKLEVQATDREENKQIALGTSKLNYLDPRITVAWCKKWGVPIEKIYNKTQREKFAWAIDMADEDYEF
Method: Two assays, based on DNA relaxation and DNA cleavage (Bailly, C. DNA relaxation and cleavage assays to study topoisomerase I inhibitors. Methods Enzymol. 2001, 340, 610-623) were used evaluate the effects of the lamellarin analogs on the catalytic activity of human topoisomerase I.
In the first assay, a supercoiled plasmid DNA was relaxed with topoisomerase I in the absence or presence of the test compounds, each tested at 1 μM. DNA relaxation products were then resolved by gel electrophoresis on agarose gels containing ethidium bromide to stain the DNA.

[16] = total growth inhibition (cytostatic effect)
[17] = TGI=total growth inhibition (cytostatic effect)

`COc1cc(-c2c3n(c4c(=O)oc5cc(OC(C)=O)c(OC)cc5c24)CCc2cc(OC)c(OC(C)=O)cc2-3)ccc1OC(C)=O` [Compound 94] was tested, and the GI50 ([1]; GI=growth inhibition, read-out: GI50 PANC-1) was 2.12 µM, the CC50 ([1]; cell killing (cytotoxic effect), read-out: LC50 PANC-1) was 15.9 µM and the “TGI PANC-1” value [1, 16] was 1.59E−05 Molar. For the same compound, the GI50 ([2]; GI=growth inhibition, read-out: GI50 IGROV-ET) was 1.59 µM, the CC50 ([2]; LC=cell killing (cytotoxic effect), read-out: LC50 IGROV-ET) was 15.9 µM and the “TGI IGROV-ET” value [2, 17] was 1.59E−05 Molar. The GI50 ([3]; GI=growth inhibition, read-out: GI50 LOVO) was 5.7 µM, the CC50 ([3]; cell killing (cytotoxic effect), read-out: LC50 LOVO) was 15.9 µM and the “TGI LOVO” value [3, 16] was 1.59E−05 Molar. The GI50 ([4]; GI=growth inhibition) was 15.9 µM, the CC50 ([4]; LC=cell killing (cytotoxic effect), read-out: LC50 H-MEC-1) was 15.9 µM and the “TGI H-MEC-1” value [4, 17] was 1.59E−05 Molar. For the same compound, the GI50 ([5]; GI=growth inhibition, read-out: GI50 SKOV-3) was 8.48 µM, the CC50 ([5]; LC=cell killing (cytotoxic effect), read-out: LC50 SKOV-3) was 15.9 µM and the “TGI SKOV-3” value [5, 17] was 1.59E−05 Molar. For the same compound, the GI50 ([6]; GI=growth inhibition, read-out: GI50 HT-29) was 15.5 µM, the CC50 ([6]; cell killing (cytotoxic effect), read-out: LC50 HT-29) was 15.9 µM and the “TGI HT-29” value [6, 16] was 1.59E−05 Molar. For the same compound, the GI50 ([7]; GI=growth inhibition, read-out: GI50 SK-BR-3) was 3.35 µM, the CC50 ([7]; LC=cell killing (cytotoxic effect), read-out: LC50 SK-BR-3) was 15.9 µM and the “TGI SK-BR-3” value [7, 17] was 1.24E−05 Molar. For the same compound, the GI50 ([8]; GI=growth inhibition, read-out: GI50 DU-145) was 13.1 µM, the CC50 ([8]; LC=cell killing (cytotoxic effect), read-out: LC50 DU-145) was 15.9 µM and the “TGI DU-145” value [8, 17] was 1.59E−05 Molar. The GI50 ([9]; GI=growth inhibition, read-out: GI50 A-549) was 7.19 µM, the CC50 ([9]; cell killing (cytotoxic effect), read-out: LC50 A-549) was 15.9 µM and the “TGI A-549” value [9, 16] was 1.59E−05 Molar. The GI50 ([10]; GI=growth inhibition, read-out: GI50 LOVO-DOX) was 2.84 µM, the CC50 ([10]; cell killing (cytotoxic effect), read-out: LC50 LOVO-DOX) was 15.9 µM and the “TGI LOVO-DOX” value [10, 16] was 8.25E−06 Molar. For the same compound, the GI50 ([11]; GI=growth inhibition, read-out: GI50 K-562) was 0.526 µM, the CC50 ([11]; cell killing (cytotoxic effect), read-out: LC50 K-562) was 4.32 µM and the “TGI K-562” value [11, 16] was 1.82E−06 Molar. The GI50 ([12]; GI=growth inhibition, read-out: GI50 IGROV) was 1.83 µM, the CC50 ([12]; LC=cell killing (cytotoxic effect), read-out: LC50 IGROV) was 15.9 µM and the “TGI IGROV” value [12, 17] was 5.90E−06 Molar. For the same compound, the GI50 ([13]; GI=growth inhibition, read-out: GI50 MEL-28) was 2.45 µM, the CC50 ([13]; LC=cell killing (cytotoxic effect), read-out: LC50 MEL-28) was 15.9 µM and the “TGI MEL-28” value [13, 17] was 7.31E−06 Molar. For the same compound, the GI50 ([14]; GI=growth inhibition, read-out: GI50 LN-caP) was 0.673 µM, the CC50 ([14]; LC=cell killing (cytotoxic effect), read-out: LC50 LN-caP) was 12.5 µM and the “TGI LN-caP” value [14, 17] was 2.87E−06 Molar.

For `COc1cc(-c2c3n(c4c(=O)oc5cc(OC(C)=O)c(OC)cc5c24)CCc2cc(OC(C)=O)c(OC)cc2-3)ccc1OC(C)=O` [Compound 108], the “stimulation of DNA cleavage by topoisomerase I / inhibition of topoisomerase I (nicked DNA band) in DNA relaxation assay” value [15] was “inactive”.

For `COc1cc(-c2c3c4cc(OC)c(OC(=O)[C@H](NC(=O)OC(C)(C)C)C(C)C)cc4oc(=O)c3n3ccc4cc(OC(=O)[C@H](NC(=O)OC(C)(C)C)C(C)C)c(OC)cc4c23)ccc1OC(=O)[C@H](NC(=O)OC(C)(C)C)C(C)C` [Compound 122], the “stimulation of DNA cleavage by topoisomerase I / inhibition of topoisomerase I (nicked DNA band) in DNA relaxation assay” value [15] was “No effect”.
